According to ChEMBL document CHEMBL1141676, “A three-dimensional pharmacophore model for dipeptidyl peptidase IV inhibitors” (Eur J Med Chem, 2008):

Target: Dipeptidyl peptidase 4 (Homo sapiens, UniProt P27487)
Sequence (P27487 whole entry): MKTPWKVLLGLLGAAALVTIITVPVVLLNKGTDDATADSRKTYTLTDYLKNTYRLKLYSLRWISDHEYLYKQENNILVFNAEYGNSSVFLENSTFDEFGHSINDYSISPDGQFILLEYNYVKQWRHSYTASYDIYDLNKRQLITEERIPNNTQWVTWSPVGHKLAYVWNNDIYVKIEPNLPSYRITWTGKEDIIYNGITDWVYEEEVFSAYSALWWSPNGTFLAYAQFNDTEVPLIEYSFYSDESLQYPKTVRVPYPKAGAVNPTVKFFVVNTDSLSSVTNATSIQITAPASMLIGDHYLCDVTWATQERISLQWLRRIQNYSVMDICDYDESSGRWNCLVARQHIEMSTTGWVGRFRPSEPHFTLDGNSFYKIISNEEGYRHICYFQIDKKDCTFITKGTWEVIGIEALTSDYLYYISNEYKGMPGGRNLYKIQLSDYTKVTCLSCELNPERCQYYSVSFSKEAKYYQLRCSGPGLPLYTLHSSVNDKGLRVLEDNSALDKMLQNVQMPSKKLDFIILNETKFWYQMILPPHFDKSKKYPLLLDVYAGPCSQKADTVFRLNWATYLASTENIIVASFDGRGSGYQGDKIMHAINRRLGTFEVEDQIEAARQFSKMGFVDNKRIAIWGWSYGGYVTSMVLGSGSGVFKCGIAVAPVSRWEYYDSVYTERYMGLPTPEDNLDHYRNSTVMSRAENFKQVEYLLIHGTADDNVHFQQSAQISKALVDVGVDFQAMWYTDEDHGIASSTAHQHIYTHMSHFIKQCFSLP
Description: Inhibition of human DPP4 expressed in baculovirus system

With `N[C@H](C(=O)N1CCc2ccccc2C1)C1CCCCC1` the IC50 was 230 µM.

`N#C[C@@H]1CCCN1C(=O)CN1CCc2ccccc2C1` gave an IC50 of 390 µM.
